Test results from patent publication US20170000749A1, “Methods for Treating Cognitive Disorders Using Inhibitors of Histone Deacetylase” (Forum Pharmaceuticals, Inc., priority 2008, published 2017).
Where two headings read alike, the source gives them in different places.

Legend:
[1] = tested on: HDAC activity in primary mouse cortical cultures; experiment: Whole-Cell Histone Deacetylase (HDAC) Inhibition Assay in Primary Mouse Cortical Cultures; assay type: cell-based
In short: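 Primary neocortical neurons from E17 Balb/C mouse embryos were plated at 50000 cells/well and treated at DIV9 with ten-point DMSO dilutions for 16-18 h at 37° C, in triplicate. BOC-Lys(Ac)-AMC substrate was then added for 1 h. Fluor de Lys developer containing 1 uM TSA produced a fluorophore, which was read.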

[2] = target: one or more of HDAC-1, HDAC-2, HDAC-3, HDAC-4, HDAC-5, HDAC-6, HDAC-7, HDAC-8, HDAC-9, HDAC-10 and HDAC-11; experiment: Inhibition of Histone Deacetylase Enzymatic Activity (Boc-Lys(Ac)-AMC substrate, Fluor-de-Lys developer); assay type: biochemical; conditions: read-out: HDAC Inhibition (IC50 μM) HDAC Enzyme
Procedure: The following protocol is used to assay the compounds of the disclosure.
The mixture is pre-incubated for 5 minutes at room temperature. The reaction is started by bringing the temperature to 37° C. and adding 16 μl substrate. Total reaction volume is 50 μl.
In the Tables 8, 9 and 10, A≦0.05 μM; 0.05 μM<B≦0.1 μM; 0.1 μM<C≦1 μM; and 1 μM<D≦10 μM.

[3] = whole-cell (WC), mouse cortical neurons, Table 8, read-out: HDAC Inhibition (IC50 μM) WC mouse cortical neurons
[4] = whole-cell (WC), mouse cortical neurons, Table 10, read-out: HDAC Inhibition (IC50 μM) WC mouse cortical neurons
[5] = read-out: HDAC Inhibition (IC50 μM) WC mouse cortical neurons, Table 10

| SMILES | IC50 [1, 3] [µM] | IC50 ([2]; Table 8) [µM] | IC50 [1, 4] [µM] | IC50 ([2]; Table 10) [µM] | IC50 [1, 5] [µM] |
| --- | --- | --- | --- | --- | --- |
| O=C(NO)c1ccc(C2=Nc3ccccc3Oc3ccccc32)cc1 [(Z)-4-(dibenzo[b,f][1,4]oxazepin-11-yl)-N-hydroxybenzamide] | < 1 | < 0.05 |  |  |  |
| O=C(NO)c1ccc(C2=Nc3ccccc3Oc3c[n+]([O-])ccc32)cc1 [(Z)-5-(4-(hydroxycarbamoyl)phenyl)benzo[b]pyrido[4,3-f][1,4]oxazepine 2-oxide] | 5 to 15 | 0.1 to 1 |  |  |  |
| O=C(CCCCN1c2ccccc2C=Cc2ccccc21)NO [(Z)-5-(5H-dibenzo[b,f]azepin-5-yl)-N-hydroxypentanamide] |  |  | 5 to 15 | 0.1 to 1 |  |
| O=C(CCCCCN1c2ccccc2C=Cc2ccccc21)NO [(Z)-6-(5H-dibenzo[b,f]azepin-5-yl)-N-hydroxyhexanamide] |  |  | 1 to 5 | < 0.05 |  |
| O=C(CCCCCC(=O)N1c2ccccc2C=Cc2ccccc21)NO [(Z)-7-(5H-dibenzo[b,f]azepin-5-yl)-N-hydroxy-7-oxoheptanamide] |  |  | < 1 | < 0.05 |  |
| O=C(CCCCCCN1c2ccccc2C=Cc2ccccc21)NO [(Z)-7-(5H-dibenzo[b,f]azepin-5-yl)-N-hydroxyheptanamide] |  |  | 1 to 5 | < 0.05 |  |
| O=C(CCCCCCC(=O)N1c2ccccc2C=Cc2ccccc21)NO [(Z)-8-(5H-dibenzo[b,f]azepin-5-yl)-N-hydroxy-8-oxooctanamide] |  |  | 5 to 15 | 0.1 to 1 |  |
| CN1C(=O)CN=C(c2ccccc2)c2ccc(CCC(=O)NO)cc21 [(Z)-N-hydroxy-3-(1-methyl-2-oxo-5-phenyl-2,3-dihydro-1H-benzo[e][1,4]diazepin-8-yl)propanamide] |  |  |  | 0.1 to 1 | 5 to 15 |
| CN1C(=O)CN=C(c2ccc(C(=O)NO)cc2)c2ccccc21 [(Z)-N-hydroxy-4-(1-methyl-2-oxo-2,3-dihydro-1H-benzo[e][1,4]diazepin-5-yl)benzamide] |  |  |  | 0.1 to 1 | 5 to 15 |
| O=C(NO)c1ccc(C2=Nc3ccc(C(F)(F)F)nc3Oc3ccccc32)cc1 [(Z)-N-hydroxy-4-(2-(trifluoromethyl)benzo[f]pyrido[2,3-b][1,4]oxazepin-6-yl)benzamide] | 5 to 15 | 0.05 to 0.1 |  |  |  |
| COc1cccc2c1Oc1ccc(C(F)(F)F)cc1N=C2c1ccc(C(=O)NO)cc1 [(Z)-N-hydroxy-4-(4-methoxy-8-(trifluoromethyl)dibenzo[b,f][1,4]oxazepin-11-yl)benzamide] | 5 to 15 | 0.1 to 1 |  |  |  |
| O=C(NO)c1ccc(C2=Nc3ccccc3N(CCN3CCOCC3)c3ncccc32)cc1 [(Z)-N-hydroxy-4-(11-(2-morpholinoethyl)-11H-benzo[b]pyrido[2,3-e][1,4]diazepin-5-yl)benzamide] | 1 to 5 | 0.05 to 0.1 |  |  |  |
| O=C(NO)c1ccc(C2=Nc3ccccc3N(CCCN3CCOCC3)c3ncccc32)cc1 [(Z)-N-hydroxy-4-(11-(3-morpholinopropyl)-11H-benzo[b]pyrido[2,3-e][1,4]diazepin-5-yl)benzamide] | 1 to 5 | 0.1 to 1 |  |  |  |
| CC(C)N1c2ccccc2N=C(c2ccc(C(=O)NO)cc2)c2cccnc21 [(Z)-N-hydroxy-4-(11-isopropyl-11H-benzo[b]pyrido[2,3-e][1,4]diazepin-5-yl)benzamide] | < 1 | < 0.05 |  |  |  |
| O=C(CCCCCN1C(=O)CN=C(c2ccccc2)c2ccccc21)NO [(Z)-N-hydroxy-6-(2-oxo-5-phenyl-2,3-dihydro-1H-benzo[e][1,4]diazepin-1-yl)hexanamide] |  |  |  | 0.1 to 1 | 1 to 5 |
| O=C(CCCCCCCN1C(=O)CN=C(c2ccccc2)c2ccccc21)NO [(Z)-N-hydroxy-8-(2-oxo-5-phenyl-2,3-dihydro-1H-benzo[e][1,4]diazepin-1-yl)octanamide] |  |  |  | 0.1 to 1 | 1 to 5 |
| COc1cccc2c1C(c1ccc(C(=O)NO)cc1)=Nc1ccccc1O2 [(Z)—N-hydroxy-4-(1-methoxydibenzo[b,f][1,4]oxazepin-11-yl)benzamide] | > 15 | 0.1 to 1 |  |  |  |
| COc1ccc2c(c1)C(c1ccc(C(=O)NO)cc1)=Nc1ccccc1O2 [(Z)—N-hydroxy-4-(2-methoxydibenzo[b,f][1,4]oxazepin-11-yl)benzamide] | 5 to 15 | 0.1 to 1 |  |  |  |
| O=C(NO)c1ccc(C2=Nc3ccccc3Oc3cc(C(F)(F)F)ccc32)cc1 [(Z)—N-hydroxy-4-(3-(trifluoromethyl)dibenzo[b,f][1,4]oxazepin-11-yl)benzamide] | > 15 | 0.05 to 0.1 |  |  |  |
| COc1ccc2c(c1)Oc1ccccc1N=C2c1ccc(C(=O)NO)cc1 [(Z)—N-hydroxy-4-(3-methoxydibenzo[b,f][1,4]oxazepin-11-yl)benzamide] | 1 to 5 | 0.1 to 1 |  |  |  |

| SMILES | IC50 [1, 3] [µM] | IC50 ([2]; Table 8) [µM] | IC50 [1, 4] [µM] | IC50 ([2]; Table 10) [µM] | IC50 [1, 5] [µM] |
| --- | --- | --- | --- | --- | --- |
| Cc1ccc2c(c1)Oc1ccccc1N=C2c1ccc(C(=O)NO)cc1 [(Z)—N-hydroxy-4-(3-methyldibenzo[b,f][1,4]oxazepin-11-yl)benzamide] | 1 to 5 | < 0.05 |  |  |  |
| O=C(NO)c1ccc(C2=Nc3ccccc3Oc3cc(N4CCOCC4)ccc32)cc1 [(Z)—N-hydroxy-4-(3-morpholinodibenzo[b,f][1,4]oxazepin-11-yl)benzamide] | 5 to 15 | 0.1 to 1 |  |  |  |
| COCCOc1cccc2c1Oc1ccccc1N=C2c1ccc(C(=O)NO)cc1 [(Z)—N-hydroxy-4-(4-(2-methoxyethoxy)dibenzo[b,f][1,4]oxazepin-11-yl)benzamide] | 1 to 5 | < 0.05 |  |  |  |
| O=C(NO)c1ccc(C2=Nc3ccccc3Oc3c(OCCN4CCOCC4)cccc32)cc1 [(Z)—N-hydroxy-4-(4-(2-morpholinoethoxy)dibenzo[b,f][1,4]oxazepin-11-yl)benzamide] | < 1 | < 0.05 |  |  |  |
| C[S+]([O-])c1cccc2c1Oc1ccccc1N=C2c1ccc(C(=O)NO)cc1 (centres unmarked) [(Z)—N-hydroxy-4-(4-(methylsulfinyl)dibenzo[b,f][1,4]oxazepin-11-yl)benzamide] | 1 to 5 | 0.05 to 0.1 |  |  |  |
| CS(=O)(=O)c1cccc2c1Oc1ccccc1N=C2c1ccc(C(=O)NO)cc1 [(Z)—N-hydroxy-4-(4-(methylsulfonyl)dibenzo[b,f][1,4]oxazepin-11-yl)benzamide] | 1 to 5 | < 0.05 |  |  |  |
| CSc1cccc2c1Oc1ccccc1N=C2c1ccc(C(=O)NO)cc1 [(Z)—N-hydroxy-4-(4-(methylthio)dibenzo[b,f][1,4]oxazepin-11-yl)benzamide] | 1 to 5 | < 0.05 |  |  |  |
| O=C(NO)c1ccc(C2=Nc3ccccc3Oc3c(OC(F)(F)F)cccc32)cc1 [(Z)—N-hydroxy-4-(4-(trifluoromethoxy)dibenzo[b,f][1,4]oxazepin-11-yl)benzamide] | > 15 | 0.1 to 1 |  |  |  |
| O=C(NO)c1ccc(C2=Nc3ccccc3Oc3c2cccc3C(F)(F)F)cc1 [(Z)—N-hydroxy-4-(4-(trifluoromethyl)dibenzo[b,f][1,4]oxazepin-11-yl)benzamide] | > 15 | < 0.05 |  |  |  |
| O=C(NO)c1ccc(C2=Nc3ccccc3Oc3c(O)cccc32)cc1 [(Z)—N-hydroxy-4-(4-hydroxydibenzo[b,f][1,4]oxazepin-11-yl)benzamide] | < 1 | 0.05 to 0.1 |  |  |  |
| COc1cccc2c1Oc1ccccc1N=C2c1ccc(C(=O)NO)cc1 [(Z)—N-hydroxy-4-(4-methoxydibenzo[b,f][1,4]oxazepin-11-yl)benzamide] | 1 to 5 | 0.05 to 0.1 |  |  |  |
| Cc1cccc2c1Oc1ccccc1N=C2c1ccc(C(=O)NO)cc1 [(Z)—N-hydroxy-4-(4-methyldibenzo[b,f][1,4]oxazepin-11-yl)benzamide] | 1 to 5 | 0.05 to 0.1 |  |  |  |
| CCCc1cccc2c1Oc1ccccc1N=C2c1ccc(C(=O)NO)cc1 [(Z)—N-hydroxy-4-(4-propyldibenzo[b,f][1,4]oxazepin-11-yl)benzamide] | > 15 | 0.1 to 1 |  |  |  |
| COCCN1c2ccccc2N=C(c2ccc(C(=O)NO)cc2)c2ccccc21 [(Z)—N-hydroxy-4-(5-(2-methoxyethyl)-5H-dibenzo[b,e][1,4]diazepin-11-yl)benzamide] | 1 to 5 | 0.1 to 1 |  |  |  |
| CC(C)N1c2ccccc2N=C(c2ccc(C(=O)NO)cc2)c2ccccc21 [(Z)—N-hydroxy-4-(5-isopropyl-5H-dibenzo[b,e][1,4]diazepin-11-yl)benzamide] | < 1 | < 0.05 |  |  |  |
| Cc1cccc2c1Oc1ccccc1C(c1ccc(C(=O)NO)cc1)=N2 [(Z)—N-hydroxy-4-(6-methyldibenzo[b,f][1,4]oxazepin-11-yl)benzamide] | 5 to 15 | 0.1 to 1 |  |  |  |
| O=C(NO)c1ccc(C2=Nc3ccc(C(F)(F)F)cc3Oc3ccccc32)cc1 [(Z)—N-hydroxy-4-(7-(trifluoromethyl)dibenzo[b,f][1,4]oxazepin-11-yl)benzamide] | > 15 | 0.1 to 1 |  |  |  |
| O=C(NO)c1ccc(C2=Nc3cc(C(F)(F)F)ccc3Oc3ccccc32)cc1 [(Z)—N-hydroxy-4-(8-(trifluoromethyl)dibenzo[b,f][1,4]oxazepin-11-yl)benzamide] | 5 to 15 | 0.1 to 1 |  |  |  |
| Cc1ccc2c(c1)N=C(c1ccc(C(=O)NO)cc1)c1ccccc1O2 [(Z)—N-hydroxy-4-(8-methyldibenzo[b,f][1,4]oxazepin-11-yl)benzamide] | 1 to 5 | 0.05 to 0.1 |  |  |  |
| O=C(NO)c1cnc(N2CCn3c(nnc3C(F)(F)F)C2)nc1 [N-hydroxy-2-(3-(trifluoromethyl)-5,6-dihydro-[1,2,4]triazolo[4,3-a]pyrazin-7(8H)-yl)pyrimidine-5-carboxamide] |  |  | 1 to 5 | 0.05 to 0.1 |  |
